For assay [1], the system named is peritoneal macrophages (PM). Description: Extra-cellular L-Arg concentration in supernatants of peritoneal macrophages (HPLC). The format is cell-based, mice. As to conditions: for extra-cellular L-Arg levels (mean of three experiments): L-Arg 2 mM, NOHA 100 μM, Nor-NOHA 50 μM; for rapid decrease in the extra-cellular levels of L-Arg: PM stimulated with IL-4+IL-13. Here is the method: Jurkat T-cells, a CD4^+ cell line (Clone E6-1) (ATCC, Manassas, Va.) and normal stimulated T-cells were used to test the effect of ASE I, ASE II and iNOS produced by PM on CD3ζ expression. Six-week old female C57BL/6 mice were used to isolate peritoneal macrophages (PM). Briefly, 3 ml of thioglycolate-brewer (Becton Dickinson, San Jose, Calif.) were injected into the peritoneal cavity of mice for 3 days. Mice were then sacrificed and PM isolated by washing the peritoneum with HBSS. After 2 days of culture in RPMI with 4% fetal bovine serum, unattached cells were washed off and attached cells were used in co-cultures with Jurkat or normal T-cells.
(§1) PM were cultured in 6 well plates in RPMI containing 150 μM L-Arg and stimulated with murine rIL-4 (50 U/ml) and murine rIL-13 (50 ng/ml), or murine rIFN-γ (100 U/ml) for 24 hours. Then 1×10^6 normal T-cells stimulated with anti-CD3 plus anti-CD28 or 1×10^6 Jurkat cells, were cultured in the top chamber of a transwell system having 0.4 μm pores (Falcon, Franklin lakes, N.J.). CD3ζ expression was measured in Jurkat cells or T lymphocytes at different time points. PM were detached using trypsin/EDTA and the expression of protein and RNA for CAT-2B, ASE I, ASE II and iNOS was tested by western blot and northern blot respectively. Cytoplasmic extracts from PM were used to test ASE activity. Supernatants from stimulated PM were used to measure NO production using the Griess reagent method (Molecular Probes, Eugene, Oreg.). In addition, the extra-cellular concentration of L-Arg was tested in supernatants by HPLC (Dr. Gu Yao Wu laboratory, University of Texas) as described previously. O'Quinn, P. R., D. A. Knabe, and G. Wu. 2002. Arginine catabolism in lactating porcine mammary tissue. J Anim Sci. 80:467-474.

Assay [2] has as its system Jurkat cells. The assay can be described thus: Co-culture in transwells of stimulated PM and Jurkat cells, CD3ζ expression. It is filed as cell-based. As to conditions: for CD3ζ in Jurkat cells co-cultured with PM stimulated with IL-4+IL-13: NOHA 100 μM, Nor-NOHA 50 μM, L-Arg 2 mM, L-NIL 5 μg/ml, catalase 200 U/ml, L-NMMA, L-NNA, L-NAME 1 mM. Here is the method:
as §1
Flow cytometry analysis was performed as previously described. Taheri, F., J. B. Ochoa, Z. Faghiri, K. Culotta, H. J. Park, M. S. Lan, A. H. Zea, and A. C. Ochoa. 2001. L-Arginine regulates the expression of the T-cell receptor zeta chain (CD3zeta) in Jurkat cells. Clin Cancer Res 7:958s-965s. Briefly, 5×10^5 Jurkat cells or T lymphocytes were washed once with Dulbecco phosphate-buffered saline 1× (D-PBS) and resuspended in 200 μL of D-PBS containing 1 μg of anti-CD3ε or isotype control. Cells were incubated for 15 min at 4° C., washed with D-PBS and resuspended in 200 μl D-PBS containing 500 μg/ml of digitonin plus 1 μg of anti-CD3ζ or 1 μg of isotypic control. Cells were incubated for 8 minutes after which they were washed and resuspended in 400 μl of D-PBS. Fluorescence acquisition and analysis were done using a Coulter-EPICS XL flow cytometer (Beckman-Coulter) with a 488 nm argon laser. The data were expressed as mean channel fluorescence intensity (MFI).

The test system of assay [3] is Jurkat cells. The assay can be described thus: Proliferation of Jurkat cells with H. pylori sonicate (3H-thymidine). It is filed as cell-based. As to conditions: NOHA 10 μg/ml, L-arginine 2 mM; sonicate 50 μg/ml. Here is the method: Unless otherwise stated, the cells were always cultured in RPMI 1640 (Gibco Life-Technologies; Rockville, Md.) which contains 1104 μM L-arginine, 2.5 mM of L-glutamine, (Gibco), 25 mM HEPES (Gibco), 100 μg/ml of penicillin/streptomycin (Gibco), and 10% heat inactivated FCS (Hyclone). Jurkat cells were maintained at 0.5×10^6/ml. For proliferation assays Jurkat cells or peripheral blood mononuclear cells (PBMC) were placed at 2×10^5/well in round-bottom 96-well plates (Corning; Corning, N.Y.) and incubated for 2 h with increasing concentrations of the H. pylori sonicate ranging from 0.01 μg/ml to 100 μg/ml. After this, 30 ng/ml of anti-CD3 (Ortho Diagnostics, Raritan, N.J.) and 100 ng/ml of anti-CD28 (Becton-Dickinson Biosciences; Palo Alto, Calif.) were added to the PBMC. Jurkat cells were incubated for an additional 24 h and the PBMC for 48 h. […] The cells were collected onto glass fiber filters (Unifilter GF/B; Packard Bioscience; Meriden, Conn.) and radioactivity was counted in a Beta counter (Microplate Scintillation and Luminiscence Counter, TopCount, Packard).
[…] After addition of the sonicate plus NOHA or sonicate plus L-arginine mixture to the Jurkat cells, 1.0 μCi of ^3H-thymidine (NEN) was added per well, the cells were incubated at 37° C. for 18 h, harvested onto filters and counted in a β-counter (Packard).

A further assay concerns the target CAT-3 (Homo sapiens, UniProt Q8WY07). As to conditions: read-out: Km for L-Arg; cited from earlier work.
A further assay deals with T lymphocytes. Description: Co-culture in transwells of stimulated PM and stimulated normal T lymphocytes, CD3ζ expression. It is filed as cell-based, human. Here is the method: T-cells were isolated from mononuclear cells of healthy donors by T-cell enrichment columns (R&D Systems, Minneapolis, Minn.) according to manufacturer specifications. T-cell purity (CD3+) ranged between 89-95%. The cycle of internalization and re-expression of the TCR-CD3 complex was induced by T-cell stimulation with 1 μg/ml of anti-CD3, 100 ng/ml of anti-CD28 (Becton Dickinson) and 10 μg/ml of goat anti-mouse IgG (KPL, Gaithersburg, Md.). Cells were stimulated in the absence of L-Arg and added to the co-cultures 24 h after stimulation.
as §1
Flow cytometry analysis was performed as previously described. Taheri, F., J. B. Ochoa, Z. Faghiri, K. Culotta, H. J. Park, M. S. Lan, A. H. Zea, and A. C. Ochoa. 2001. […] Fluorescence acquisition and analysis were done using a Coulter-EPICS XL flow cytometer (Beckman-Coulter) with a 488 nm argon laser. The data were expressed as mean channel fluorescence intensity (MFI).

A further assay deals with ASE. Description: ASE activity assay (L-ornithine production) in PM lysates. As to conditions: NOHA 100 μM, Nor-NOHA 50 μM. The format is biochemical, mice. Here is the method:
Cell lysates from PM stimulated with IL-4+IL-13 or IFN-γ were tested for ASE activity by measuring the production of L-ornithine. In brief, cell lysates from PM stimulated with IL-4+IL-13 or IFN-γ in the presence or absence of NOHA or Nor-NOHA were added to 50 μl of Tris-HCl (50 mM; pH 7.5) containing 10 mM MnCl2. This mixture was heated at 55-60° C. for 10 min to activate ASE. The hydrolysis reaction from L-Arg to L-ornithine was identified by a colorimetric assay after the addition of ninhydrin solution and incubation at 37° C. for 1 h.

Where [4] appears, read: PM stimulated with IL-4 + IL-13.

CAT-3, sequence (Q8WY07 whole entry, species assumed): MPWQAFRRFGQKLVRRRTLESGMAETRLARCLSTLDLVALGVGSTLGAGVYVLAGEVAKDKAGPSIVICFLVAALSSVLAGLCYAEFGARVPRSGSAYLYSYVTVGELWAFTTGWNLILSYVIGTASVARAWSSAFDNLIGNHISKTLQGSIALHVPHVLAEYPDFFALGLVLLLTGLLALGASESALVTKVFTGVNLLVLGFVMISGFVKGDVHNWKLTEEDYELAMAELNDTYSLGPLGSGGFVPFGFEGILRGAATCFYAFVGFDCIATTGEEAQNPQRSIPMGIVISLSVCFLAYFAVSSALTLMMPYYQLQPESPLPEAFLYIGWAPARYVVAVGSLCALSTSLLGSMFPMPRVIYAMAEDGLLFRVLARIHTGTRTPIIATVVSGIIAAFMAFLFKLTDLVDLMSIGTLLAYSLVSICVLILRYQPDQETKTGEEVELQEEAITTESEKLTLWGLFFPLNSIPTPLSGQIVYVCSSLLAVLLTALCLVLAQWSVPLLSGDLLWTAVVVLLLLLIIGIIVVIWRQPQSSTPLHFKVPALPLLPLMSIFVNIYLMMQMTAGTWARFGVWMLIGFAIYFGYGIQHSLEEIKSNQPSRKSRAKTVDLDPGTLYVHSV

`N=C(N)NCCC[C@H](N)C(=O)O` [L-arginine]: the “extra-cellular L-Arg levels (mean of three experiments)” value in assay [1] (Non-stimulated PM) was found to be 1267 µM; in assay [1] (setting [4]), 59.8 µM. Further, in assay [1], the “rapid decrease in the extra-cellular levels of L-Arg” value is reported as “partially blocked the rapid decrease”. Moreover, in the assay on Jurkat cells [2] (2 mM added, CD3ζ tested 24 hours later), the “re-expression of CD3ζ on addition after 24 hours of co-culture” value was “induced the re-expression of CD3ζ”. The “CD3ζ in Jurkat cells co-cultured with PM stimulated with IL-4+IL-13” value in the assay on Jurkat cells [2] is reported as “prevented the decrease of CD3ζ”. Besides, the “Jurkat cell proliferation in the presence of H. pylori sonicate” value in the assay with Jurkat cells [3] is reported as “prevented a decrease in cell proliferation”. For the same molecule, the Michaelis constant (Km) on CAT-3 was 100 µM.

Consider `NC(=NCCC[C@H](N)C(=O)O)NO` [NOHA, NG-hydroxy-L-arginine], for which the “extra-cellular L-Arg levels (mean of three experiments)” value in assay [1] (Non-stimulated PM) amounted to 101.6 µM; in assay [1] (setting [4]), 75.6 µM. For the same molecule, the “rapid decrease in the extra-cellular levels of L-Arg” value in assay [1] is “partially blocked the rapid decrease”. Besides, in the assay on Jurkat cells [2], the “CD3ζ in Jurkat cells co-cultured with PM stimulated with IL-4+IL-13” value is reported as “prevented the decrease of CD3ζ”. Also, in the assay with T lymphocytes, the “CD3ζ in normal stimulated T lymphocytes co-cultured with IL-4+IL-13 activated PM” value was “prevented the loss of CD3ζ”. Moreover, the “intracellular ASE activity” value in the assay on ASE is given as “blocked intracellular ASE activity”. Also, the “Jurkat cell proliferation in the presence of H. pylori sonicate” value in the assay on Jurkat cells [3] was “prevented the decrease in Jurkat cell proliferation”.

In general, Km refers to the substrate concentration at which the rate is half of its maximum.
